Data from patent publication US7932266B2, “Isoquinoline derivatives as calpain inhibitors” (Consejo Superior de Investigaciones Cientificas, priority 2004, dated 2011).

Experiments:
[1] = biological target: T1, calpain I from porcine erythrocyte (Sus scrofa, UniProt P35750); assay: Enzyme activity test: inhibition of calpain (fluorimetric, BODIPY-FL casein substrate); format: biochemical; settings: 7 inhibitor concentrations between 10 nM and 200 μM
T1 construct: calpain I from porcine erythrocyte (Calbiochem, Cat No 208712) was used as enzyme; purchased Calbiochem 208712; host or cells: porcine erythrocyte (natural source)
T1 sequence (P35750 1-714): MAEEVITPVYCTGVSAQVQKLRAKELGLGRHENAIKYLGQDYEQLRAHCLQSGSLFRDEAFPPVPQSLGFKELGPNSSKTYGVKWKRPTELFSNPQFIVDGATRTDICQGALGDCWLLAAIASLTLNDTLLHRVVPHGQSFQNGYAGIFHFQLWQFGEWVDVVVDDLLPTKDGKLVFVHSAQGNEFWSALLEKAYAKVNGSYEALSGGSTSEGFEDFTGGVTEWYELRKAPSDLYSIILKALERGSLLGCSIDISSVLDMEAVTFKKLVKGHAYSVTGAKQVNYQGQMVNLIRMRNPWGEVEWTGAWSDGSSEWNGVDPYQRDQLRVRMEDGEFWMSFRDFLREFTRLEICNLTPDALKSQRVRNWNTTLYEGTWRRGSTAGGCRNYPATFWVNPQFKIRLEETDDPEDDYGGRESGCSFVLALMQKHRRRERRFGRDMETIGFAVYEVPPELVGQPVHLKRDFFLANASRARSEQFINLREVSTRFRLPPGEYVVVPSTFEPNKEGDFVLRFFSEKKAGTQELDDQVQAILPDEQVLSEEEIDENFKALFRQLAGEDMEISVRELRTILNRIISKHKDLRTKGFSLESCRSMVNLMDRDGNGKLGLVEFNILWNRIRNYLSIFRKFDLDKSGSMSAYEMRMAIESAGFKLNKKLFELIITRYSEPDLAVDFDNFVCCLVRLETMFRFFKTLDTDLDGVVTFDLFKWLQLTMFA
T1 sequence (P04574 1-266 partner): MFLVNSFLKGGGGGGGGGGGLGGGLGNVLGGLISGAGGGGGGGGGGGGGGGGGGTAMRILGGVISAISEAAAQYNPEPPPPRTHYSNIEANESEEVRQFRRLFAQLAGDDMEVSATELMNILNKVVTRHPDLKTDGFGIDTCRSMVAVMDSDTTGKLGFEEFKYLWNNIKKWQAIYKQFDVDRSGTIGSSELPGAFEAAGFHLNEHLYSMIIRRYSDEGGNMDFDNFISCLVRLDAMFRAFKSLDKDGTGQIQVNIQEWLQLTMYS
From the text: The capacity to inhibit calpain has been quantified in terms of the value of IC50, which is defined as the concentration of inhibitor that reduces the catalytic activity of an enzyme by half. The lower the value of IC50, the more powerful the inhibitor. Inhibition results on calpain I (the most relevant from a physiological point of view) of some compounds of the present invention are shown in table 1 and in FIG. 1. Given that calpain II, also known as milli-calpain, needs a greater amount of Ca^2+ for activation, it might not possibly have such a relevant physiological role since such a concentration of Ca^2+ would cause cell death before the milli-calpain could become activated. For this reason, the inhibition tests have been performed for calpain I, though they can be extrapolated for calpain II.
The calpain inhibition capacity has been quantified in terms of the value of IC50, which is defined as the concentration of inhibitor that reduces the catalytic activity of an enzyme by half. The lower the value of IC50, the more powerful the inhibitor. Inhibition results on calpain I (the most relevant from a physiological point of view) of some compounds of the present invention are shown in table 1 and in FIG. 1.
The experiments were conducted spectrofluorimetrically using a Spectrofluor Tecan Corp 93382 spectrofluorimeter, exciting at […] and measuring at […]. Casein marked with BODIPY-FL® (Molecular Probes) was used as substrate and calpain I from porcine erythrocyte (Calbiochem, Cat No 208712) was used as enzyme. The freeze-dried substrate is component A of the protease assay kit EnzChek® green fluorescence from Molecular Probes (reference # E-6638); component B, known as 20× digestion buffer, contains 13 mL of 200 mM Tris-HCl, pH 7.8 and 2 mM sodium azide. The commercial calpain I that was used has a concentration of 1 mg in 1 mL of aqueous solution (the solution is 20 mM imidazol-HCl, pH 6.8, 1 mM EDTA, 1 mM EGTA, 5 mM β-mercaptoethanol, containing 30% glycerine).
2.5 mL of 20× digestion buffer (component B of the kit from Molecular Probes) was diluted with water to a total volume of 50 mL.
200 μg of freeze-dried substrate (component A of the kit from Molecular Probes) was dissolved in 200 μL of phosphate saline buffer. This solution was decanted into a graduated flask and diluted with the digestion solution to a total volume of 40 mL.
20 μL of commercial solution of calpain was diluted with the digestion solution to a total volume of 200 μL.
The inhibitor was dissolved in DMSO. Each inhibitor was assayed at 7 different concentrations between 10 nM and 200 μM.
All the data were obtained measuring the variation in fluorescence with time. The use of a multi-cell device and Eppendorf multi-channel pipettes permitted measurement of the variation in fluorescence in up to 64 experiments. In this way, the control experiment and the experiments with the different concentrations of inhibitor was carried out in the same set of measurements. All the experiments were conducted twice.
The control experiment was carried out mixing 180 μL of casein solution and 5 μL of calpain solution. The reaction was initiated by the addition of 10 μL of a 50 μM solution of CaCl2 in water, and the fluorescence was measured from the moment of the addition of Ca^2+ (time=0) and for 250-300 seconds (measuring during 20 kinetic cycles). The variation in fluorescence (ΔF) was represented against time (t). In order to test the effect of DMSO on enzyme activity, additional control experiments were conducted adding DMSO (in the quantities used in the experiments with the inhibitors), with the same result being obtained as in the control experiment.
180 μL of casein solution, 5 μL of calpain solution and 5 μL of inhibitor solution (of variable concentration) were mixed together. […]

SMILES | IC50 [1] [µM] | melting point [°C]
CC[C@H](C)[C@@H]1NC(=S)c2ccccc2/C1=C/C(=O)OC [Compound 28, methyl (S,S,Z)-(3-sec-butyl-1-thioxo-2,3-dihydro-1H-isoquinolin-4-yliden)-acetate] | 38 | 50 to 53
CC[C@H](C)[C@@H]1NC(=O)c2ccccc2/C1=C/C(=O)N[C@H](C(=O)N[C@@H](Cc1ccccc1)C(=O)OC)C(C)C [Compound 27, methyl (S,S,S,S,Z)-2-{2-[2-(3-sec-butyl-1-oxo-2,3-dihydro-1H-isoquinolin-4-yliden)-acetylamino]-3-methyl-butirylamino}-3-phenyl-propionate] | 0.626 | 174 to 176
CC[C@H](C)[C@@H]1NC(=O)c2ccccc2/C1=C/C(=O)OCc1ccc(COC(=O)/C=C2/c3ccccc3C(=O)N[C@H]2[C@@H](C)CC)cc1 [Compound 14] | 5 | 213 to 215
CC[C@H](C)[C@H](NC(=O)/C=C1/c2ccccc2C(=O)N[C@H]1[C@@H](C)CC)C(=O)N[C@H](C(=O)N[C@H](C(=O)OC)[C@@H](C)CC)[C@@H](C)CC [Compound 26, methyl (S,S,S,S,S,S,S,S,S,Z)-2-(2-{2-[2-(3-sec-butyl-1-oxo-2,3-dihydro-1H-isoquinolin-4-yliden)-acetylamino]-3-methyl-pentanoylamino}-3-methyl-pentanoylamino)-3-methyl-pentanoate] | 0.159 | 151 to 154
CC[C@H](C)[C@H](NC(=O)/C=C1/c2ccccc2C(=S)N[C@H]1[C@@H](C)CC)C(=O)N[C@H](C(=O)OC)[C@@H](C)CC [Compound 30, methyl (S,S,S,S,S,S,Z)-2-{2-[2-(3-sec-butyl-1-thioxo-2,3-dihydro-1H-isoquinolin-4-yliden)-acetylamino]-3-methyl-pentanoylamino}-3-methyl-pentanoate] |  | 178 to 181
CC[C@H](C)[C@@H]1NC(=O)c2ccccc2/C1=C/C(=O)Nc1cccc(C(C)=O)c1 [Compound 16, (S,S,Z)-N-(3-acetyl-phenyl)-2-(3-sec-butyl-1-oxo-2,3-dihydro-1H-isoquinolin-4-yliden)-acetamide] | 130 | 147 to 151
CC[C@H](C)[C@@H]1NC(=S)c2ccccc2/C1=C/C(=O)O [Compound 29, (S,S,Z)-(3-sec-butyl-1-thioxo-2,3-dihydro-1H-isoquinolin-4-yliden)-acetic acid] |  | 193 to 196
CC[C@H](C)[C@@H]1NC(=O)c2ccccc2/C1=C/C(=O)Nc1ccccc1-c1ccccc1NC(=O)[C@@H](NC(=O)OCC1c2ccccc2-c2ccccc21)C(C)C [Compound 19, (S,S,S,Z)-9H-fuorene-9-ylmethyl (1-{2′-[2-(3-sec-butyl-1-oxo-2,3-dihydro-1H-isoquinolin-4-yliden)-acetylamino]-biphenyl-2-ylcarbamoyl}-2-methyl-propyl)-carbamate] | 100 | 133 to 135
CC[C@H](C)[C@@H]1NC(=O)c2ccccc2/C1=C/C(=O)Nc1ccccc1-c1ccccc1NC(=O)[C@H](Cc1ccccc1)NC(=O)OCC1c2ccccc2-c2ccccc21 [Compound 20, (S,S,S,Z)-9H-fuorene-9-ylmethyl (1-{2′-[2-(3-sec-butyl-1-oxo-2,3-dihydro-1H-isoquinolin-4-yliden)-acetylamino]-biphenyl-2-ylcarbamoyl}-2-phenyl-ethyl)-carbamate] | 48 | 108 to 110
CC[C@H](C)[C@@H]1NC(=O)c2ccccc2/C1=C/C(=O)OCc1ccccc1 [Compound 11, benzyl (S,S,Z)-(3-sec-butyl-1-oxo-2,3-dihydro-1H-isoquinolin-4-yliden)-acetate] | 124 | 53 to 54
CC[C@H](C)[C@@H]1NC(=O)c2ccccc2/C1=C/C(=O)OC [Compound 7, methyl (S,S,Z)-(3-sec-butyl-1-oxo-2,3-dihydro-1H-isoquinolin-4-yliden)-acetate] | 0.025 | 
CCCCOC(=O)/C=C1/c2ccccc2C(=O)N[C@H]1[C@@H](C)CC [Compound 10, 1-butyl (S,S,Z)-(3-sec-butyl-1-oxo-2,3-dihydro-1H-isoquinolin-4-yliden)-acetate] |  | 110 to 112
CC[C@H](C)[C@H](N)C(=O)Nc1ccccc1-c1ccccc1NC(=O)/C=C1/c2ccccc2C(=O)N[C@H]1[C@@H](C)CC [Compound 24, (S,S,S,S,Z)-2-amino-N-{2′-[2-(3-sec-butyl-1-oxo-2,3-dihydro-1H-isoquinolin-4-yliden)-acetylamino]-biphenyl-2-yl}-3-methyl-pentanamide] | 50 | 
CC[C@H](C)[C@@H]1NC(=O)c2ccccc2/C1=C/C(=O)Nc1ccccc1-c1ccccc1N [Compound 17, (S,S,Z)-N-(2′-amino-biphenyl-2-yl)-2-(3-sec-butyl-1-oxo-2,3-dihydro-1H-isoquinolin-4-yliden)-acetamide] | 0.086 | 
CC[C@H](C)[C@H](NC(=O)/C=C1/c2ccccc2C(=O)N[C@H]1[C@@H](C)CC)C(=O)N[C@H](C(=O)OC)[C@@H](C)CC [Compound 25, methyl (S,S,S,S,S,Z)-2-{2-[2-(3-sec-butyl-1-oxo-2,3-dihydro-1H-isoquinolin-4-yliden)-acetylamino]-3-methyl-pentanoylamino}-3-methyl-pentanoate] | 0.447 | 
CC[C@H](C)[C@@H]1NC(=O)c2ccccc2/C1=C/C(=O)O [Compound 8, (S,S,Z)-(3-sec-butyl-1-oxo-2,3-dihydro-1H-isoquinolin-4-yliden)-acetic acid] |  | 215 to 216
CC[C@H](C)[C@@H]1NC(=O)c2ccccc2/C1=C/C(=O)Nc1ccccc1-c1ccccc1NC(=O)[C@@H](N)Cc1ccccc1 [Compound 23, (S,S,S,Z)-2-amino-N-{2′-[2-(3-sec-butyl-1-oxo-2,3-dihydro-1H-isoquinolin-4-yliden)-acetylamino]-biphenyl-2-yl}-3-phenyl-propionamide] | 7 | 
